Tested on: human hair follicles
Assay: Growth of cultivated entire human hair follicles from scalp ex vivo, 14 days of culture
Type: cell-based
Conditions: vs control non-treated follicles, minoxidil concentration not given
Description: Study of the effect of a Cleome spinosa extract on the growth of cultivated human hair follicles.
Evaluation of minoxidil, a reference molecule, was conducted in parallel.
Hair follicles originate from the human scalp from plastic surgery departments of hospitals or clinics (two donors).
The skin is shaved and washed in 6 baths of antibiotics. The follicles in the anagen phase are recognizable because they are very vascularized, and then isolated from the skin under a binocular magnifier and cleared of fat.
They are then incubated at 37° C. in 24-well culture dishes in an adequate culture medium containing the products to be tested.
The growth of the stem of the hair follicle is measured with plotting paper under a binocular magnifier on days 0, 4, 5, 7, 9, 12 or 14.
The determination of the growth and activity percentages of the hydroalcoholic extract of Cleome spinosa was carried out after 4 or 5, 7 or 8, 12 and 14 days of treatment of the hair follicles as compared with control non-treated follicles.
Notation: Tx is the time x after treatment • T0 is time 0 of the beginning of the treatment
The growth percentage is equal to (Tx measurement−T0 measurement)/T0 measurement×100
The activity of the treatment is calculated in the following way: [(Tx treated measurement−T0 treated measurement)−(Tx control measurement−T0 control measurement)]/(Tx control measurement−T0 control measurement)×100

SMILES: Nc1cc(N2CCCCC2)nc(N)[n+]1[O-] [Minoxidil, 2,4-diamino-6-piperidinopyrimidine-3-oxide]
- % of activity (D4/D5 of treatment): 55%
- % of activity (D8/D7 of treatment): 41%
- % of activity (D12 of treatment): 21%
- % of activity (D14 of treatment): 17%

— patent publication US8007836B2, “Cleome spinosa extract used in pharmaceutical preparations and cosmetic compositions” (Pierre Fabre Dermo-Cosmetique, priority 2007, dated 2011)
